Experimental data published in US6737383B1, “Herbicidal oxadiazolidines” (priority 1999, dated 2004).

Columns and labels:
rape = assay: Test B pre/postemergence rape; type: in vivo, Brassica napus
In short: (§1)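 Herbicidal effect was estimated by eye on a ten-point control scale after plants spent twelve to sixteen days in a greenhouse following soil or foliar treatment. Foliar sprays targeted plants at one to four leaves; all doses were formulated in a non-phytotoxic solvent with surfactant.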

cocklebur = assay: Test B pre/postemergence cocklebur; type: in vivo, Xanthium strumarium
In short: as §1

corn = assay: Test B pre/postemergence corn; type: in vivo, Zea mays
In short: as §1

morningglory = assay: Test B pre/postemergence morningglory; type: in vivo, Ipomoea hederacea
In short: as §1

velvetleaf = assay: Test B pre/postemergence velvetleaf; type: in vivo, Abutilon theophrasti
In short: as §1

bedstraw = assay: Test B pre/postemergence bedstraw; type: in vivo, Galium aparine
In short: as §1

wild oat = assay: Test B pre/postemergence wild oat; type: in vivo, Avena fatua
In short: as §1

purple nutsedge = assay: Test B pre/postemergence purple nutsedge; type: in vivo, Cyperus rotundus
In short: as §1

pigweed = assay: Test B pre/postemergence pigweed; type: in vivo, Amaranthus retroflexus
In short: as §1

soybean = assay: Test B pre/postemergence soybean; type: in vivo, Glycine max
In short: as §1

crabgrass = assay: Test B pre/postemergence crabgrass; type: in vivo, Digitaria sanguinalis
In short: as §1

surinam grass = assay: Test B pre/postemergence surinam grass; type: in vivo, Brachiaria decumbens
In short: as §1

blackgrass = assay: Test B pre/postemergence blackgrass; type: in vivo, Alopecurus myosuroides
In short: as §1

sugar beet = assay: Test B pre/postemergence sugar beet; type: in vivo, Beta vulgaris
In short: as §1

wheat = assay: Test B pre/postemergence wheat; type: in vivo, Triticum aestivum
In short: as §1

giant foxtail = assay: Test B pre/postemergence giant foxtail; type: in vivo, Setaria faberii
In short: as §1

[1] = Postemergence, Rate 62 g/ha, scale 0 to 10, 0 is no effect, 10 is complete control
[2] = Postemergence, Rate 125 g/ha, scale of 0 to 10 where 0 is no effect and 10 is complete control
[3] = Preemergence, Rate 125 g/ha, scale of 0 to 10 where 0 is no effect and 10 is complete control
[4] = Preemergence, Rate 250 g/ha, scale 0 (no effect) to 10 (complete control)
[5] = Rate 62 g/ha, Preemergence, scale 0 to 10
[6] = Rate 250 g/ha, Postemergence, scale 0 to 10, 0 is no effect, 10 is complete control
[7] = Rate 500 g/ha, Postemergence, scale 0 to 10, 0 is no effect, 10 is complete control
[8] = Rate 500 g/ha, Preemergence, scale 0 to 10 (0 no effect, 10 complete control)

SMILES: CC(C)N(C(=O)n1oc(=O)n(CC(F)F)c1=O)c1ccc(Cl)cc1 [Compound 745]
- Plant response rating, Rape (rape; [1]): 0
- Rape plant response rating (rape; [2]): 0
- Plant response rating, Rape (rape; [3]): 5
- Rape plant response rating (rape; [4]): 7
- Rape plant response rating (rape; [5]): 0
- Rape plant response rating (rape; [6]): 5
- Rape plant response rating (rape; [7]): 7
- Rape plant response rating (rape; [8]): 7
- Plant response rating, Cocklebur (cocklebur; [1]): 0
- Cocklebur plant response rating (cocklebur; [2]): 0
- Plant response rating, Cocklebur (cocklebur; [3]): 0
- Cocklebur plant response rating (cocklebur; [4]): 0
- Cocklebur plant response rating (cocklebur; [5]): 0
- Cocklebur plant response rating (cocklebur; [6]): 0
- Cocklebur plant response rating (cocklebur; [7]): 4
- Cocklebur plant response rating (cocklebur; [8]): 0
- Plant response rating, Corn (corn; [1]): 0
- Corn plant response rating (corn; [2]): 0
- Plant response rating, Corn (corn; [3]): 0
- Corn plant response rating (corn; [4]): 2
- Corn plant response rating (corn; [5]): 0
- Corn plant response rating (corn; [6]): 0
- Corn plant response rating (corn; [7]): 0
- Corn plant response rating (corn; [8]): 2
- Plant response rating, Morningglory (morningglory; [1]): 3
- Morningglory plant response rating (morningglory; [2]): 3
- Plant response rating, Morningglory (morningglory; [3]): 0
- Morningglory plant response rating (morningglory; [4]): 0
- Morningglory plant response rating (morningglory; [5]): 0
- Morningglory plant response rating (morningglory; [6]): 3
- Morningglory plant response rating (morningglory; [7]): 8
- Morningglory plant response rating (morningglory; [8]): 3
- Plant response rating, Velvetleaf (velvetleaf; [1]): 0
- Velvetleaf plant response rating (velvetleaf; [2]): 0
- Plant response rating, Velvetleaf (velvetleaf; [3]): 0
- Velvetleaf plant response rating (velvetleaf; [4]): 4
- Velvetleaf plant response rating (velvetleaf; [5]): 0
- Velvetleaf plant response rating (velvetleaf; [6]): 3
- Velvetleaf plant response rating (velvetleaf; [7]): 7
- Velvetleaf plant response rating (velvetleaf; [8]): 6
- Bedstraw plant response rating (bedstraw; [4]): 5
- Bedstraw plant response rating (bedstraw; [5]): 0
- Bedstraw plant response rating (bedstraw; [6]): 7
- Bedstraw plant response rating (bedstraw; [7]): 9
- Bedstraw plant response rating (bedstraw; [8]): 5
- Plant response rating, Wild oats (wild oat; [1]): 0
- Wild oats plant response rating (wild oat; [2]): 0
- Plant response rating, Wild oats (wild oat; [3]): 6
- Wild oats plant response rating (wild oat; [4]): 8
- Wild oats plant response rating (wild oat; [5]): 2
- Wild oats plant response rating (wild oat; [6]): 4
- Wild oats plant response rating (wild oat; [7]): 4
- Wild oats plant response rating (wild oat; [8]): 8
- Plant response rating, Nutsedge (purple nutsedge; [1]): 0
- Nutsedge plant response rating (purple nutsedge; [2]): 0
- Nutsedge plant response rating (purple nutsedge; [4]): 0
- Nutsedge plant response rating (purple nutsedge; [5]): 0
- Nutsedge plant response rating (purple nutsedge; [6]): 0
- Nutsedge plant response rating (purple nutsedge; [7]): 0
- Nutsedge plant response rating (purple nutsedge; [8]): 5
- Plant response rating, Redroot pigweed (pigweed; [1]): 2
- Redroot pigweed plant response rating (pigweed; [2]): 2
- Plant response rating, Redroot pigweed (pigweed; [3]): 9
- Redroot pigweed plant response rating (pigweed; [4]): 10
- Redroot pigweed plant response rating (pigweed; [5]): 7
- Redroot pigweed plant response rating (pigweed; [6]): 5
- Redroot pigweed plant response rating (pigweed; [7]): 6
- Redroot pigweed plant response rating (pigweed; [8]): 10
- Plant response rating, Soybean (soybean; [1]): 3
- Soybean plant response rating (soybean; [2]): 3
- Plant response rating, Soybean (soybean; [3]): 0
- Soybean plant response rating (soybean; [4]): 0
- Soybean plant response rating (soybean; [5]): 0
- Soybean plant response rating (soybean; [6]): 5
- Soybean plant response rating (soybean; [7]): 5
- Soybean plant response rating (soybean; [8]): 0
- Plant response rating, Crabgrass (crabgrass; [1]): 4
- Crabgrass plant response rating (crabgrass; [2]): 4
- Plant response rating, Crabgrass (crabgrass; [3]): 10
- Crabgrass plant response rating (crabgrass; [4]): 10
- Crabgrass plant response rating (crabgrass; [5]): 7
- Crabgrass plant response rating (crabgrass; [6]): 9
- Crabgrass plant response rating (crabgrass; [7]): 9
- Crabgrass plant response rating (crabgrass; [8]): 10
- Plant response rating, B. signalgrass (surinam grass; [1]): 0
- B. signalgrass plant response rating (surinam grass; [2]): 0
- B. signalgrass plant response rating (surinam grass; Preemergence, Rate 62 g/ha, scale of 0 to 10 where 0 is no effect and 10 is complete control): 8
- Plant response rating, B. signalgrass (surinam grass; [3]): 9
- B. signalgrass plant response rating (surinam grass; [4]): 10
- B. signalgrass plant response rating (surinam grass; [6]): 6
- B. signalgrass plant response rating (surinam grass; [7]): 6
- B. signalgrass plant response rating (surinam grass; [8]): 10
- Plant response rating, Blackgrass (blackgrass; [1]): 3
- Blackgrass plant response rating (blackgrass; [2]): 3
- Plant response rating, Blackgrass (blackgrass; [3]): 6
- Blackgrass plant response rating (blackgrass; [4]): 9
- Blackgrass plant response rating (blackgrass; [5]): 3
- Blackgrass plant response rating (blackgrass; [6]): 8
- Blackgrass plant response rating (blackgrass; [7]): 9
- Blackgrass plant response rating (blackgrass; [8]): 9
- Plant response rating, Sugarbeets (sugar beet; [1]): 2
- Sugarbeets plant response rating (sugar beet; [2]): 2
- Plant response rating, Sugarbeets (sugar beet; [3]): 4
- Sugarbeets plant response rating (sugar beet; [4]): 4
- Sugarbeets plant response rating (sugar beet; [5]): 0
- Sugarbeets plant response rating (sugar beet; [6]): 4
- Sugarbeets plant response rating (sugar beet; [7]): 4
- Sugarbeets plant response rating (sugar beet; [8]): 4
- Plant response rating, Wheat (wheat; [1]): 0
- Wheat plant response rating (wheat; [2]): 0
- Plant response rating, Wheat (wheat; [3]): 0
- Wheat plant response rating (wheat; [4]): 0
- Wheat plant response rating (wheat; [5]): 0
- Wheat plant response rating (wheat; [6]): 0
- Wheat plant response rating (wheat; [7]): 3
- Wheat plant response rating (wheat; [8]): 0
- Plant response rating, Giant foxtail (giant foxtail; [1]): 2
- Giant foxtail plant response rating (giant foxtail; [2]): 2
- Plant response rating, Giant foxtail (giant foxtail; [3]): 10
- Giant foxtail plant response rating (giant foxtail; [4]): 10
- Giant foxtail plant response rating (giant foxtail; [5]): 10
- Giant foxtail plant response rating (giant foxtail; [6]): 9
- Giant foxtail plant response rating (giant foxtail; [7]): 9
- Giant foxtail plant response rating (giant foxtail; [8]): 10
